{"source": "patent US5155099A", "about": "“Alkylphosphonoserines and pharmaceutical compositions useful as cytostatic agents” (Hafslund Nycomed Pharma Aktiengesellschaft, priority 1988, dated 1992)", "test_system": "Ehrlich ascites tumor cells", "test": "Concentration-dependent inhibition of growth of Ehrlich ascites tumor cells (antiproliferative action)", "type": "cell-based", "text": "The novel alkylphosphonoserines have a strong cytostatic and virustatic action. In order to determine the cytostatic action, the antiproliferative action was investigated in Ehrlich ascites tumor cells. It can be seen here that the compounds according to the invention have excellent cytostatic action. They can therefore be employed as cytostatics or virustatics, alone or in a mixture with other active substances, in the form of customary pharmaceutical preparations.\nConcentration-dependent Inhibition of Growth of Ehrlich Ascites Tumor Cells"}
{"smiles": "CCCCCCCCCCCCCCCCP(=O)(O)OC[C@H](N)C(=O)O", "note": "[n-Hexadecyl phosphono-L-serine, n-Hexadecylphosphono-L-serine]", "values": [{"measurement": "inhibition at 100 µM", "setting": "Concentration 1 × 10^-4 M", "result": 89, "unit": "%"}, {"measurement": "inhibition at 10 µM", "setting": "Concentration 1 × 10^-5 M", "result": 13, "unit": "%"}, {"measurement": "inhibition at 30 µM", "setting": "Concentration 3 × 10^-5 M", "result": 45, "unit": "%"}, {"measurement": "inhibition at 3 µM", "setting": "Concentration 3 × 10^-6 M", "result": 9, "unit": "%"}]}
